Literature values, collected in PubChem BioAssay AID1259409 (Chemical Carcinogenesis Research Information System (CCRIS), 2018).

Tested on: rodent chemically induced tumor inhibition, incidence and multiplicity
Assay: CCRIS tumor inhibitor studies
Conditions: Route [Inhibitor]: ORAL, Species: HAMSTER, Promoter: NONE USED

Compound: CC1=C(/C=C/C(C)=C/C=C/C(C)=C/C(=O)NCCO)C(C)(C)CCC1
- tumour outcome (control, treated, inhibition, significance) (Carcinogen: N-NITROBIS(2-OXOPROPYL)AMINE, 60559-38-4, Dose [Inhibitor]: 0.5 OR 1.0 MMOL/KG DIET DAILY STARTING 1 WK AFTER CARCINOGEN TREATMENT AND CONTINUING THROUGH THE END OF THE STUDY (STUD, Strain/Sex: SYRIAN/MALE, Target Tissue: Type of Lesion: PANCREAS: DUCTULAR CARCINOMA, Dose [Carcinogen]: 10 MG/KG BW ONCE): 4/22 (18%), 7/37 (19%), -6%, not significant
- tumour outcome (control, treated, inhibition, significance) (Carcinogen: N-NITROBIS(2-OXOPROPYL)AMINE, 60559-38-4, Dose [Inhibitor]: 0.5 OR 1.0 MMOL/KG DIET DAILY STARTING 1 WK AFTER CARCINOGEN TREATMENT AND CONTINUING THROUGH THE END OF THE STUDY (STUD, Strain/Sex: SYRIAN/MALE, Target Tissue: Type of Lesion: PANCREAS: DUCTULAR CARCINOMA, Dose [Carcinogen]: 40 MG/KG BW ONCE): 5/24 (21%), 20/42 (48%), -129%, not significant
- tumour outcome (control, treated, inhibition, significance) (Carcinogen: N-NITROBIS(2-OXOPROPYL)AMINE, 60559-38-4, Dose [Inhibitor]: 0.5 OR 1.0 MMOL/KG IN DIET STARTING 1 WK AFTER CARCINOGEN TREATMENT AND CONTINUING THROUGH THE END OF THE STUDY (STUDY D, Strain/Sex: SYRIAN/FEMALE, Target Tissue: Type of Lesion: LIVER: BENIGN TUMOR, Dose [Carcinogen]: 40 MG/KG BW ONCE): 4/20 (20%), 17/35 (49%), -145%, not significant
- tumour outcome (control, treated, inhibition, significance) (Carcinogen: N-NITROBIS(2-OXOPROPYL)AMINE, 60559-38-4, Dose [Inhibitor]: 0.5 OR 1.0 MMOL/KG IN DIET STARTING 1 WK AFTER CARCINOGEN TREATMENT AND CONTINUING THROUGH THE END OF THE STUDY (STUDY D, Strain/Sex: SYRIAN/FEMALE, Target Tissue: Type of Lesion: PANCREAS: DUCTULAR ADENOMA, Dose [Carcinogen]: 10 MG/KG BW ONCE): 5/23 (23%), 10/37 (27%), -17%, not significant
- tumour outcome (control, treated, inhibition, significance) (Carcinogen: N-NITROBIS(2-OXOPROPYL)AMINE, 60559-38-4, Dose [Inhibitor]: 0.5 OR 1.0 MMOL/KG IN DIET STARTING 1 WK AFTER CARCINOGEN TREATMENT AND CONTINUING THROUGH THE END OF THE STUDY (STUDY D, Strain/Sex: SYRIAN/FEMALE, Target Tissue: Type of Lesion: PANCREAS: DUCTULAR ADENOMA, Dose [Carcinogen]: 40 MG/KG BW ONCE): 12/20 (60%), 27/33 (82%), -37%, not significant
- tumour outcome (control, treated, inhibition, significance) (Carcinogen: N-NITROBIS(2-OXOPROPYL)AMINE, 60559-38-4, Dose [Inhibitor]: 0.5 OR 1.0 MMOL/KG IN DIET STARTING 1 WK AFTER CARCINOGEN TREATMENT AND CONTINUING THROUGH THE END OF THE STUDY (STUDY D, Strain/Sex: SYRIAN/FEMALE, Target Tissue: Type of Lesion: PANCREAS: DUCTULAR CARCINOMA, Dose [Carcinogen]: 40 MG/KG BW ONCE): 6/20 (30%), 8/33 (24%), 20%, not significant
- tumour outcome (control, treated, inhibition, significance) (Carcinogen: N-NITROBIS(2-OXOPROPYL)AMINE, 60559-38-4, Dose [Inhibitor]: 0.5 OR 1.0 MMOL/KG IN DIET STARTING 1 WK AFTER CARCINOGEN TREATMENT AND CONTINUING THROUGH THE END OF THE STUDY (STUDY D, Strain/Sex: SYRIAN/MALE, Target Tissue: Type of Lesion: LIVER: BENIGN TUMOR, Dose [Carcinogen]: 40 MG/KG BW ONCE): 5/24 (21%), 26/42 (62%), -195%, p<0.05
- tumour outcome (control, treated, inhibition, significance) (Carcinogen: N-NITROBIS(2-OXOPROPYL)AMINE, 60559-38-4, Dose [Inhibitor]: 0.5 OR 1.0 MMOL/KG IN DIET STARTING 1 WK AFTER CARCINOGEN TREATMENT AND CONTINUING THROUGH THE END OF THE STUDY (STUDY D, Strain/Sex: SYRIAN/MALE, Target Tissue: Type of Lesion: PANCREAS: DUCTULAR ADENOMA, Dose [Carcinogen]: 10 MG/KG BW ONCE): 3/22 (14%), 16/37 (43%), -207%, not significant
- tumour outcome (control, treated, inhibition, significance) (Carcinogen: N-NITROBIS(2-OXOPROPYL)AMINE, 60559-38-4, Dose [Inhibitor]: 0.5 OR 1.0 MMOL/KG IN DIET STARTING 1 WK AFTER CARCINOGEN TREATMENT AND CONTINUING THROUGH THE END OF THE STUDY (STUDY D, Strain/Sex: SYRIAN/MALE, Target Tissue: Type of Lesion: PANCREAS: DUCTULAR ADENOMA, Dose [Carcinogen]: 40 MG/KG BW ONCE): 8/24 (33%), 34/42 (81%), -145%, not significant
- tumour outcome (control, treated, inhibition, significance) (Carcinogen: N-NITROBIS(2-OXOPROPYL)AMINE, 60559-38-4, Dose [Inhibitor]: 0.5 OR 1.0 MMOL/KG IN DIET STARTING 1 WK AFTER CARCINOGEN TREATMENT AND CONTINUING THROUGH THE END OF THE STUDY (STUDY D, Strain/Sex: SYRIAN/MALE, Target Tissue: Type of Lesion: PANCREAS: DUCTULAR CARCINOMA, Dose [Carcinogen]: 10 MG/KG BW SINGLE INJECTION): 4/22 (18%), 7/37 (19%), -6%, not significant
- tumour outcome (control, treated, inhibition, significance) (Carcinogen: N-NITROBIS(2-OXOPROPYL)AMINE, 60559-38-4, Dose [Inhibitor]: 0.5 OR 1.0 MMOL/KG IN DIET STARTING 1 WK AFTER CARCINOGEN TREATMENT AND CONTINUING THROUGH THE END OF THE STUDY (STUDY D, Strain/Sex: SYRIAN/MALE, Target Tissue: Type of Lesion: PANCREAS: DUCTULAR CARCINOMA, Dose [Carcinogen]: 40 MG/KG BW ONCE): 5/24 (21%), 20/42 (48%), -129%, not significant
- tumour outcome (control, treated, inhibition, significance) (Carcinogen: N-NITROSOBIS(2-OXYPROPYL)AMINE, 60599-38-4, Dose [Inhibitor]: 0.05, 0.1 OR 0.2 MILLIMOLAR/KG DIET FOR 32 WK STARTING 1 WK AFTER CARCINOGEN DOSE (STUDY DURATION: 33 WK), Strain/Sex: SYRIAN/FEMALE, Target Tissue: Type of Lesion: LIVER: ADENOMA, Dose [Carcinogen]: 40 MG/KG ONCE): 6/10 (60%), 6/29 (21%), 65%, p<0.025
